Key:
[1] = system: PP1; details: literature; cited from earlier work
[2] = system: PP2A; details: literature; cited from earlier work
[3] = system: T1, PP-1; assay: PP inhibition assay, PP-1; type: biochemical; details: for PP-1 inhibition relative to TTN: less efficient / worse than TTN; for IC50: read-out: in vitro inhibition (IC50) against PP-1
T1 construct: other: less efficient / worse than TTN
Description: (§1) IR spectra were measured on a Bruker EQUINOX 55/S FT-IR/NIR spectrophotometer (Ettlingen, DE). Optical rotations were determined on a Perkin-Elmer 241 instrument at the sodium D line (589 nm). High-resolution mass spectrometry (HRMS) analyses were acquired on an IonSpec HiRes MALDI FT mass spectrometer (Lake Forest, Calif.) for […] or on an Agilent 1100 series LC/MSD Trap SL for HRESIMS (Santa Clara, Calif.). NMR data were recorded on a Varian Unity Inova 400 or 500 MHz NMR spectrometer (Varian, Inc., Palo Alto, Calif.). ^1H and ^13C NMR chemical shifts were referenced to residual solvent signals: δH 7.26 ppm and […] for CDCl3. ^1H-^1H COSY, HMQC, HMBC, HETLOC, gHSQMBC, and gDQCOSY were performed using either standard Varian pulse sequences or literature pulse sequences (Uhrin et al., 1998; Williamson et al., 2000). High-performance liquid chromatography (HPLC) analysis was carried out on a Varian HPLC system equipped with ProStar 210 pumps and a photodiode detector. Mobile phases used were buffer A (H2O) and buffer B (CH3CN). Analytical and semipreparative HPLC columns used were Alltech Alltima C18 columns, 250×4.6 mm, 5 μm and 250×10 mm, 5 respectively. Cytotoxity assays and PP inhibition assays for TTN and related analogues were performed as previously described for compound TTM and related congeners (Ju et al., 2009). Medium components and all other chemical solvents and reagents were purchased from Fisher Scientific (Fairlawn, N.J.). Silica gel 60 RP-18 (230-400 mesh, EMD Chemical Inc., Gibbstown, N.J.) was used for standard benchtop column chromatography. Amberlite XAD-16 resin was purchased from Sigma.
(§2) Compounds 3-7 were subjected to PP inhibition and cytotoxicity assays with 1 as a control (Ju et al., 2009). Assays focused specifically on the inhibition of PP-1 and PP-2A (Table 4), while cytotoxicity assays exploited the use of selected human cancer cell lines Du145, MCF7, and HCT-115 (Table 5).

[4] = system: PP-2A; assay: PP inhibition assay, PP-2A; type: biochemical; details: for IC50: read-out: in vitro inhibition (IC50) against PP-2A
Description: as §1, §2

[5] = system: Du145, MCF7, and HCT-115; assay: cytotoxicity against selected human cancer cell lines; type: cell-based; details: Du145, MCF7, HCT-115
Description: as §1
as §2, with “5). […]” for “5).”

[6] = in vitro cytotoxicity assay, Du145; type: cell-based; details: Du145 cells; Du145 human cancer cell line
Description: as §1, with “Medium components and all other chemical solvents and reagents were purchased from Fisher Scientific (Fairlawn, N.J.). Silica gel 60 RP-18 (230-400 mesh, EMD Chemical Inc., Gibbstown, N.J.) was used for standard benchtop column chromatography. Amberlite XAD-16 resin was purchased from Sigma.” left out

[7] = in vitro cytotoxicity assay, MCF7; type: cell-based; details: MCF7 cells; MCF7 human cancer cell line
Description: as §1, with “Medium components and all other chemical solvents and reagents were purchased from Fisher Scientific (Fairlawn, N.J.). Silica gel 60 RP-18 (230-400 mesh, EMD Chemical Inc., Gibbstown, N.J.) was used for standard benchtop column chromatography. Amberlite XAD-16 resin was purchased from Sigma.” left out

[8] = in vitro cytotoxicity assay, HCT-115; type: cell-based; details: HCT-115 cells; HCT-115 human cancer cell line
Description: as §1, with “Medium components and all other chemical solvents and reagents were purchased from Fisher Scientific (Fairlawn, N.J.). Silica gel 60 RP-18 (230-400 mesh, EMD Chemical Inc., Gibbstown, N.J.) was used for standard benchtop column chromatography. Amberlite XAD-16 resin was purchased from Sigma.” left out

[9] = system: PP-1; assay: PP inhibition assay, PP-1; type: biochemical; details: PP-1 over PP-2A
Description: as §1, §2

[10] = system: activated T cells; details: literature (Shim et al., 2002); cited from earlier work

CO[C@H]([C@H](O)CC(=O)[C@@H](C)[C@@H](O)CC[C@@H](C)[C@@H]1O[C@]2(CC[C@@H](C)[C@H](CC[C@H](C)C(C)=O)O2)CC[C@@H]1C)[C@H](OC(=O)C[C@@H](O)C1=C(C)C(=O)OC1=O)C(C)C [TTM, tautomycin]
IC50 [1]: 22 to 32 nM
preference for PP1 inhibition relative to PP2A [1]: slight preference for PP1
IC50 [2]: 22 to 32 nM

CCC(/C=C/C(=O)O)=C\CC[C@H](C)C[C@@H](C)CC[C@H](O)[C@H](C)C(=O)C[C@@H](O)[C@H](C)[C@@H](C)OC(=O)C[C@@H](O)C1=C(C)C(=O)OC1=O [TTN D-1 (4)]
PP-1 inhibition relative to TTN [3]: approximately one order of magnitude
IC50 [3]: 130 ± 20 nM
PP-2A inhibition relative to TTN [4]: about the same potency as TTN
IC50 [4]: 520 ± 50 nM
cytotoxicity (in words) [5]: inactive

CCC(/C=C/C(=O)O)=C\C(O)C[C@H](C)C[C@@H](C)CC[C@H](O)[C@H](C)C(=O)C[C@@H](O)[C@H](C)[C@@H](C)OC(=O)C[C@@H](O)C1=C(C)C(=O)OC1=O (stereo partly drawn) [TTN D-2 (5)]
PP-1 inhibition relative to TTN [3]: approximately three orders of magnitude worse
IC50 [3]: 9800 ± 100 nM
PP-2A inhibition relative to TTN [4]: about two orders of magnitude worse
IC50 [4]: 44000 ± 100 nM
cytotoxicity (in words) [5]: inactive

CCC(C=CC(=O)O)=CC(O)CC(C)CC(C)CCC(O)C(C)C(=O)CC(O)C(C)C(C)OC(=O)CC(O)C1=C(C)C(=O)OC1=O [TTN D-3 (6)]
PP-1 inhibition relative to TTN [3]: approximately one order of magnitude
IC50 [3]: 210 ± 30 nM
PP-2A inhibition relative to TTN [4]: about the same potency as TTN
IC50 [4]: 800 ± 60 nM
IC50 [6]: 14000 ± 3000 nM
IC50 [7]: 11000 ± 3000 nM
IC50 [8]: 16000 ± 3000 nM

CCC(C=CC(=O)O)=CC(=O)CC(C)CC(C)CCC(O)C(C)C(=O)CC(O)C(C)C(C)OC(=O)CC(O)C1=C(C)C(=O)OC1=O [TTN D-4 (7)]
PP-1 inhibition relative to TTN [3]: approximately one order of magnitude
PP-2A inhibition relative to TTN [4]: about the same potency as TTN
IC50 [4]: 920 ± 40 nM
IC50 [6]: 13000 ± 4000 nM
IC50 [7]: 17000 ± 3000 nM
IC50 [8]: 18000 ± 3000 nM

CC/C(=C\CC[C@H](C)C[C@@H](C)CC[C@H](O)[C@H](C)C(=O)C[C@@H](O)[C@H](C)[C@@H](C)OC(=O)C[C@@H](O)C1=C(C)C(=O)OC1=O)C(O)CC(=O)O (stereo partly shown) [TTN F-1 (3)]
PP-1 inhibition relative to TTN [3]: approximately one order of magnitude
IC50 [3]: 170 ± 10 nM
PP-2A inhibition relative to TTN [4]: about the same potency as TTN
IC50 [4]: 640 ± 80 nM
cytotoxicity (in words) [5]: inactive

Tautomycetin [TTN (1), reference compound]
PP-1 selectivity [9]: about 27 fold
IC50 [3]: 15 ± 0.0008 nM
IC50 [4]: 400 ± 40 nM
IC50 [1]: 1.6 nM
IC50 [2]: 62 nM
T cell proliferation inhibited at concentrations lower than those needed for maximal inhibition by cyclosporine A [10]: 100 fold

Reference: patent US8580977B2 (priority 2010, dated 2013)
